# Data from US12291518B2, “Thyroid hormone receptor agonists and use thereof” (Eccogene Inc., priority 2020, dated 2025).
# Tests used:
# THR alpha-LBD = target: T1, THR alpha-LBD (Homo sapiens, UniProt P10827); test: THR-α Coactivator Peptide Recruitment Assay (LanthaScreen TR-FRET); format: biochemical; conditions: TR-FRET coactivator recruitment, THR alpha-LBD 0.25 nM; for EC50: read-out: THRα EC50
# T1 construct: except that THR alpha-LBD of a final concentration 0.25 nM was used; purchased Invitrogen PV4687
# T1 sequence (P10827 163-410 isoform P10827-2 limits assumed, other chains not shown): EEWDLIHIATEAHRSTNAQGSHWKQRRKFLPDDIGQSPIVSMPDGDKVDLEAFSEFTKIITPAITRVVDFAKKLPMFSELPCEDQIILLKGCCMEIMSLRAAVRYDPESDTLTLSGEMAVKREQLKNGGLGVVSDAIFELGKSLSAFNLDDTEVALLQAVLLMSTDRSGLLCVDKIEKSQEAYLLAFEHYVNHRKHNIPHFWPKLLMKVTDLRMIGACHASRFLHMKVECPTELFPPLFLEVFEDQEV
# Method in brief: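 TR-FRET coactivator recruitment with THR alpha-LBD at 0.25 nM final, Fluorescein-SRC2-2 peptide 0.1 nM and Tb-labeled anti-GST antibody 2 nM; 2 h incubation at room temperature. 520/495 nm emission ratio fitted to a four-parameter sigmoidal curve to give EC50.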
# THR beta-LBD = target: T2, THR beta-LBD (Homo sapiens, UniProt P10828); test: THR-β Coactivator Peptide Recruitment Assay (LanthaScreen TR-FRET); format: biochemical; conditions: TR-FRET coactivator recruitment, THR beta-LBD 0.5 nM; for EC50: read-out: THRβ EC50
# T2 construct: THR beta-LBD (the final concentration is 0.5 nM) was added to the 384-well assay plate; purchased Invitrogen PV4686
# T2 sequence (P10828 217-461 limits assumed): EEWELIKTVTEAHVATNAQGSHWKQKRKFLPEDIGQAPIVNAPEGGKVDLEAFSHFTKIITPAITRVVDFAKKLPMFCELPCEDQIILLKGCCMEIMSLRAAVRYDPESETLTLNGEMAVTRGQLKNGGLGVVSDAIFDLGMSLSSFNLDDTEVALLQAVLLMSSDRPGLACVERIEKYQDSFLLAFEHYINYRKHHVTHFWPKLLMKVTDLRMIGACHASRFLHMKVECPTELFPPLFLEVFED
# Method in brief: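 GST-tagged THR beta-LBD (0.5 nM) with test compound recruits fluorescein-SRC2-2 coactivator peptide (0.1 nM), detected with Tb-anti-GST antibody (2 nM).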
THRα Emax (THR alpha-LBD),EC50 (THR alpha-LBD),THRβ Emax (THR beta-LBD),EC50 (THR beta-LBD),Compound
A (85~110),200 to 1000 nM,A (90~110),20 to 100 nM,"O=c1[nH]c(=O)n(-c2cc(Cl)c(Oc3ccc(O)c(S(=O)(=O)NC4C[S+]([O-])C4)c3)c(Cl)c2)nc1C(F)F (centres unmarked) [Compound 96, 5-[2,6-dichloro-4-[6-(difluoromethyl)-3,5-dioxo-1,2,4-triazin-2-yl]phenoxy]-2-hydroxy-N-(1-oxothietan-3-yl) benzenesulfonamide]"
A (85~110),2 to 200 nM,A (90~110),< 2 nM,"O=c1[nH]c(=O)n(-c2cc(Cl)c(Cc3ccc(O)c(S(=O)(=O)N[C@H]4C[C@H](O)C4)c3)c(Cl)c2)nc1C(F)F [Compound 97, 5-[[2,6-dichloro-4-[6-(difluoromethyl)-3,5-dioxo-1,2,4-triazin-2-yl]phenyl]methyl]-2-hydroxy-N-(3-hydroxycyclobutyl)benzenesulfonamide]"
B (40~85),2 to 200 nM,B (75~90),2 to 20 nM,"O=C(N[C@H]1CCOC1)c1cc(Oc2c(Cl)cc(-n3nc(C(F)F)c(=O)[nH]c3=O)cc2Cl)ccc1O [Compound 98, (S)-5-(2,6-dichloro-4-(6-(difluoromethyl)-3,5-dioxo-4,5-dihydro-1,2,4-triazin-2 (3H)-yl)phenoxy)-2-hydroxy-N-(tetrahydrofuran-3-yl) benzamide]"
A (85~110),2 to 200 nM,B (75~90),2 to 20 nM,CN([C@H]1C[C@H](O)C1)S(=O)(=O)c1cc(Oc2c(Cl)cc(-n3nc(C(F)F)c(=O)[nH]c3=O)cc2Cl)ccc1O [Compound 99]
A (85~110),2 to 200 nM,A (90~110),< 2 nM,"O=c1[nH]c(=O)n(-c2cc(Cl)c(Oc3ccc(O)c(S(=O)(=O)[C@H]4C[C@@H](O)C4)c3)c(Cl)c2)nc1C(F)F [Compound 100, 2-(3,5-dichloro-4-(4-hydroxy-3-(((1s,3s)-3-hydroxycyclobutyl)sulfonyl)phenoxy)phenyl)-6-(difluoromethyl)-1,2,4-triazine-3,5(2H,4H)-dione]"
B (40~85),200 to 1000 nM,B (75~90),2 to 20 nM,O=C(NCC1(NS(=O)(=O)c2cc(Oc3c(Cl)cc(-n4nc(C(F)F)c(=O)[nH]c4=O)cc3Cl)ncc2O)CC1)C1CC1 [Compound 101]
A (85~110),200 to 1000 nM,B (75~90),2 to 20 nM,"CNS(=O)(=O)c1cc(Oc2c(Cl)cc(-n3nc(C#N)c(=O)[nH]c3=O)cc2Cl)ncc1O [Compound 102, 2-(2,6-dichloro-4-(6-cyano-3,5-dioxo-4,5-dihydro-1,2,4-triazin-2(3H)-yl)phenoxy)-5-hydroxy-N-methylpyridine-4-sulfonamide]"
B (40~85),> 1000 nM,C (<75),2 to 20 nM,"COCC1(NS(=O)(=O)c2cc(Oc3c(Cl)cc(-n4nc(C(F)F)c(=O)[nH]c4=O)cc3Cl)ncc2O)CC1 [Compound 103, 2-(2,6-dichloro-4-(6-(difluoromethyl)-3,5-dioxo-4,5-dihydro-1,2,4-triazin-2(3H)-yl)phenoxy)-5-hydroxy-N-(1-(methoxymethyl)cyclopropyl)pyridine-4-sulfonamide]"
B (40~85),2 to 200 nM,B (75~90),< 2 nM,"O=c1[nH]c(=O)n(-c2cc(Cl)c(Oc3cc(S(=O)(=O)N[C@H]4CCOC4)c(O)cn3)c(Cl)c2)nc1C(F)F [Compound 104, (S)-2-(2,6-dichloro-4-(6-(difluoromethyl)-3,5-dioxo-4,5-dihydro-1,2,4-triazin-2(3H)-yl)phenoxy)-5-hydroxy-N-(tetrahydrofuran-3-yl)pyridine-4-sulfonamide]"
A (85~110),2 to 200 nM,B (75~90),< 2 nM,"O=c1[nH]c(=O)n(-c2cc(Cl)c(Oc3cc(S(=O)(=O)NC4CC(F)(F)C4)c(O)cn3)c(Cl)c2)nc1C(F)F [Compound 105, 2-(2,6-dichloro-4-(6-(difluoromethyl)-3,5-dioxo-4,5-dihydro-1,2,4-triazin-2(3H)-yl)phenoxy)-N-(3,3-difluorocyclobutyl)-5-hydroxypyridine-4-sulfonamide]"
A (85~110),2 to 200 nM,B (75~90),2 to 20 nM,"O=c1[nH]c(=O)n(-c2cc(Cl)c(Oc3cc(S(=O)(=O)N[C@@H]4CCOC4)c(O)cn3)c(Cl)c2)nc1C(F)F [Compound 106, (R)-2-(2,6-dichloro-4-(6-(difluoromethyl)-3,5-dioxo-4,5-dihydro-1,2,4-triazin-2(3H)-yl)phenoxy)-5-hydroxy-N-(tetrahydrofuran-3-yl)pyridine-4-sulfonamide]"
B (40~85),2 to 200 nM,B (75~90),2 to 20 nM,"O=c1[nH]c(=O)n(-c2cc(Cl)c(Oc3cc(S(=O)(=O)N4CC(O)C4)c(O)cn3)c(Cl)c2)nc1C(F)F [Compound 107, 2-(3,5-dichloro-4-((5-hydroxy-4-((3-hydroxyazetidin-1-yl)sulfonyl)pyridin-2-yl)oxy)phenyl)-6-(difluoromethyl)-1,2,4-triazine-3,5(2H,4H)-dione]"
B (40~85),2 to 200 nM,B (75~90),2 to 20 nM,"O=c1[nH]c(=O)n(-c2cc(Cl)c(Oc3cc(S(=O)(=O)N4CC[C@H](O)C4)c(O)cn3)c(Cl)c2)nc1C(F)F [Compound 108, (S)-2-(3,5-dichloro-4-((5-hydroxy-4-((3-hydroxypyrrolidin-1-yl)sulfonyl)pyridin-2-yl)oxy)phenyl)-6-(difluoromethyl)-1,2,4-triazine-3,5(2H,4H)-dione]"
A (85~110),2 to 200 nM,B (75~90),< 2 nM,"O=c1[nH]c(=O)n(-c2cc(Cl)c(Oc3cc(S(=O)(=O)N4CC(F)(F)C4)c(O)cn3)c(Cl)c2)nc1C(F)F [Compound 109, 2-(3,5-dichloro-4-((4-((3,3-difluoroazetidin-1-yl)sulfonyl)-5-hydroxypyridin-2-yl)oxy)phenyl)-6-(difluoromethyl)-1,2,4-triazine-3,5(2H,4H)-dione]"
A (85~110),2 to 200 nM,A (90~110),< 2 nM,"CC(C)NS(=O)(=O)c1cc(Oc2c(Cl)cc(-n3nc(C(F)F)c(=O)[nH]c3=O)cc2Cl)ncc1O [Compound 110, 2-(2,6-dichloro-4-(6-(difluoromethyl)-3,5-dioxo-4,5-dihydro-1,2,4-triazin-2(3H)-yl)phenoxy)-5-hydroxy-N-isopropylpyridine-4-sulfonamide]"
A (85~110),2 to 200 nM,A (90~110),< 2 nM,"O=c1[nH]c(=O)n(-c2cc(Cl)c(Oc3cc(S(=O)(=O)NCC(F)F)c(O)cn3)c(Cl)c2)nc1C(F)F [Compound 111, 2-(2,6-dichloro-4-(6-(difluoromethyl)-3,5-dioxo-4,5-dihydro-1,2,4-triazin-2(3H)-yl)phenoxy)-N-(2,2-difluoroethyl)-5-hydroxypyridine-4-sulfonamide]"
A (85~110),2 to 200 nM,A (90~110),< 2 nM,"CCNS(=O)(=O)c1cc(Oc2c(Cl)cc(-n3nc(C(F)F)c(=O)[nH]c3=O)cc2Cl)ncc1O [Compound 112, 2-(2,6-dichloro-4-(6-(difluoromethyl)-3,5-dioxo-4,5-dihydro-1,2,4-triazin-2(3H)-yl)phenoxy)-N-ethyl-5-hydroxypyridine-4-sulfonamide]"
A (85~110),2 to 200 nM,B (75~90),< 2 nM,"CN(C)S(=O)(=O)c1cc(Oc2c(Cl)cc(-n3nc(C(F)F)c(=O)[nH]c3=O)cc2Cl)ncc1O [Compound 113, 2-(2,6-dichloro-4-(6-(difluoromethyl)-3,5-dioxo-4,5-dihydro-1,2,4-triazin-2(3H)-yl)phenoxy)-5-hydroxy-N,N-dimethylpyridine-4-sulfonamide]"
A (85~110),2 to 200 nM,A (90~110),< 2 nM,"N#Cc1nn(-c2cc(Cl)c(Oc3cc(S(=O)(=O)NC4CC4)c(O)cn3)c(Cl)c2)c(=O)[nH]c1=O [Compound 114, N-cyclopropyl-2-(2,6-dichloro-4-(6-cyano-3,5-dioxo-4,5-dihydro-1,2,4-triazin-2(3H)-yl)phenoxy)-5-hydroxypyridine-4-sulfonamide]"
B (40~85),> 1000 nM,C (<75),2 to 20 nM,"O=C(NC1CCC1)C1(NS(=O)(=O)c2cc(Oc3c(Cl)cc(-n4nc(C(F)F)c(=O)[nH]c4=O)cc3Cl)ncc2O)CC1 [Compound 115, N-cyclobutyl-1-[[2-[2,6-dichloro-4-[6-(difluoromethyl)-3,5-dioxo-1,2,4-triazin-2-yl]phenoxy]-5-hydroxy-4-pyridyl]sulfonylamino]cyclopropanecarboxamide]"
